Source: paper PMC5427923, “A novel CCR2 antagonist inhibits atherogenesis in apoE deficient mice by achieving high receptor occupancy” (Scientific Reports, 2017)
Entries after “also recorded” stand apart in the source; their conditions may differ.

Legend:
[1] = 15a plasma levels by LC-MS after a single intraperitoneal dose; type: in vivo; conditions: apoE−/−, mouse
Experimental: To measure plasma concentrations of 15a over time, Western type diet fed mice were injected with 5 mg/kg 15a, after which blood samples were taken at fixed time points (1, 2, 6 and 24 hours after injection). Blood samples were processed as described below under “Measurement of 15a plasma levels”. The final dose of 5 mg/kg/day was based on a pilot study in which two different doses (1.5 and 5 mg/kg/day) were tested using leucocyte migration towards the peritoneal cavity as a read-out. […] In addition, the dose of 5 mg/kg was also based on a previous study with TAK-779[38], in which a dose of 5 mg/kg was used.
Blood plasma from mice was analyzed by LC-MS to determine 15a plasma levels. 20 μL of internal standard (compound 15b, a diastereomer of 15a[24]) and 20 μL of solvent C (20% (v/v) Acetonitrile and 0.1% (v/v) TFA in LC-MS water) were first mixed with 20 µL of plasma. A calibration curve from 2 to 200 ng/ml of 15a was prepared using solvent C. Calibration samples were prepared as normal samples using blanc plasma and calibration solution instead of solvent C. Aliquots of 40 µL of 1% TFA were added to the samples and mixed well. After addition of 900 µL of ethyl acetate, mixing was performed for 5 minutes at a titramax plate shaker (Heidolph, Swabach, Germany). Samples were then centrifuged at 15,000 × g during 10 minutes and 800 µL of the supernatant was evaporated in a vacuum centrifuge (Labconco, Kansas City, Missouri). The sample was reconstituted by mixing with 10 µL of acetonitrile, followed by addition of 40 µL solvent C. After a second centrifugation at 15,000 × g for 10 minutes, 35 µL of supernatant were transferred to LC vials and inserted into the LC-MS system consisting of a Nexera X2 UHPLC system with two UHPLC pumps (Shimadzu, ’s Hertogenbosch, The Netherlands) connected to a TSQ Quantum Ultra (Thermo Fisher Scientific, Breda, The Netherlands). Separation of 15a was accomplished in a Gemini 3 µm C18 reversed phase HPLC column (50 × 4.6 mm) (Phenomenex, Amstelveen, The Netherlands) using an injection volume of 10 µL and a flow rate of 0.6 ml/min at 40 °C. After elution of 15a with a 9:11 (v/v) ratio of acetonitrile in water with 0.1% TFA, the column was flushed with a gradient up to 90% acetonitrile with 0.1% TFA. The column was re-equilibrated with a 9:11 (v/v) ratio of acetonitrile in water with 0.1% TFA before the next injection. […] The collision energy used was 26 V at a skimmer offset of 16 V, the scan peak width was 0.5 m/z, while the scan time was 0.3 seconds. Sheath gas and auxiliary gas pressure (Nitrogen) were set to 60 and 5 respectively (arbitrary units), and the collision gas Argon was set at 1.0 atm.
To determine the maximal value of k off that would prolong the receptor occupancy even further, we used equation (2)[28], in which BF represents the percentage of target occupancy divided by 100 and t 1/2el represents the plasma elimination half-life (0.693/k el). In this case we set BF to 0.90, as 90% represents the minimum value of target occupancy to achieve efficacy. To obtain the elimination rate constant of compound 15a, a linear regression analysis of the natural logarithm of the concentrations versus time was performed, and the slope coefficient was used as the elimination rate constant k el.2 koff<0.693⋅(1−BF)/t1/2el

[2] = test system: circulating CCR2+ monocytes; assay: Circulating blood cells (flow cytometry, hematology analyzer) in 15a treated apoE−/− mice; type: in vivo, mouse
Experimental: To determine the effect of the CCR2 antagonist on atherosclerotic lesion development, mice were fed a Western type diet, containing 0.25% cholesterol and 15% cocoabutter (SDS, Sussex, UK) throughout the experiment starting two week before surgery. Carotid artery plaque formation was induced by perivascular collar placement as described previously[46] and from the time of surgery, the mice received daily intraperitoneal injections containing 15a (5 mg/kg/day) or vehicle control (n = 9–10 per group). During the experiment, total body weight and weight gain were measured. Serum total cholesterol levels were determined using an enzymatic colorimetric assay according to manufacturer’s protocol (Roche Diagnostics). Precipath (standardized serum; Boehringer Mannheim, Germany) was used as an internal standard. Plasma cytokine levels were measured by ELISA according to manufacturer’s protocol (BD Biosciences). Blood was collected weekly via tail cut. Total cell count and cellular differentiation patterns in blood were analyzed using an automated XT-2000iV veterinary hematology analyzer (Sysmex Europe GMBH, Norderstedt, Germany). After erythrocyte lysis, blood leukocyte suspensions were stained for surface markers, after which their expression was determined by FACS analysis (FACS Canto, BD Biosciences). After 4 weeks of lesion development, the animals were anaesthetized and blood was collected. After in situ perfusion through the left cardiac chamber, the carotid arteries and hearts were harvested.

[3] = 4 weeks of treatment, 18 h after last injection

CC(C)[C@]1(C(=O)N2CCc3ccc(C(F)(F)F)cc3C2)CC[C@@H](N[C@@H]2CCc3cc(Br)ccc32)C1 [15a, ((1S,3R)-3-(((R)-5-bromo-2,3-dihydro-1H-inden-1-yl)amino)-1-isopropylcyclopentyl)(7-(trifluoromethyl)-3,4-dihydroisoquinolin-2(1H)-yl)methanone]
k el ([1]; intraperitoneal, 5 mg/kg, slope of the linear regression of the pharmacokinetic data, read-out: k el (elimination rate constant) (converted)): 1.8e-05 s⁻¹ | concentration at 1 h ([1]; ip, single intraperitoneal dose of 5 mg/kg, mice, range of individual mice, read-out: plasma levels 1 h after administration): 12 to 1460 ng/mL | concentration at 2 h ([1]; ip, single intraperitoneal dose of 5 mg/kg, mice, range of individual mice, read-out: plasma levels 2 h after dosing): 613 to 1050 ng/mL | concentration at 6 h ([1]; ip, single intraperitoneal dose of 5 mg/kg, mice, range of individual mice, read-out: plasma levels 6 h after administration): 182 to 1020 ng/mL | concentration at 24 h ([1]; ip, single intraperitoneal dose of 5 mg/kg, mice, range of individual mice, read-out: plasma levels 24 h after administration): 32 to 331 ng/mL | half-life ([1]; ip, single intraperitoneal dose of 5 mg/kg, mice, read-out: elimination half-life (converted)): 10.7 h | number of circulating CCR2+ monocytes ([2]; 5 mg/kg/day i.p., 4 weeks, 18 hour after the last injection, controls 14.9 ± 3.2): 4.5 ± 1.0 *10^3 cells/mL | percentage of circulating CCR2+ monocytes (CD11b+Ly6Glow cells) ([2]; 5 mg/kg/day i.p., two weeks of treatment, 2 hours after injection, controls 8.7 ± 1.2%): 1.8 ± 0.2% | increase in the amount of CD11b+Ly6ClowCX3CR1+ monocytes [2, 3]: 1.5 fold | ratio of patrolling CD11b+Ly6ClowCX3CR1+ versus inflammatory CD11b+Ly6ChighCCR2+ monocytes in blood [2, 3]: increased | reduction in circulating CCR2+ monocyte numbers ([2]; at 18 hours after treatment): > 60% | circulating total white blood cell (WBCs) count ([2]; at the time of sacrifice): No differences | total lymphocyte numbers ([2]; at the time of sacrifice): No differences; also recorded: remained unaffected | total neutrophil numbers ([2]; at the time of sacrifice): No differences; also recorded: remained unaffected | total number of (circulating) monocytes ([2]; at the time of sacrifice): significantly reduced | bone marrow monocyte subpopulations ([2]; data not shown): did not observe any effects | number of neutrophils, CD19+ B cells, CD4+ or CD8+ T cells in blood or spleen ([2]; flow cytometry, 18 hour after the last injection, data not shown): did not affect | splenic or circulating Tregs ([2]; flow cytometry, data not shown): nor did we detect any effects | percentage of circulating CCR5+ monocytes ([2]; treated and untreated mice): did not observe any change
